# Experiments:
# [1] = in vitro; design: MTT cytotoxicity assay, formazan absorbance, viability IC50; conditions: african green monkey, vero cells; read-out: IC50 Vero
# Procedure: The cytotoxic activity of all synthesised compounds, both normal and nano-sized forms, was evaluated against three cancer cell lines, breast cancer (MCF-7), hepatocellular carcinoma (HepG-2), and non-small cell lung cancer (A549), while the normal Vero cell line was performed for the promising compounds 4, 6 and their nano-sized 4NPs, 6NPs, using the MTT assay according to the literature. The cell lines were obtained from ATCC (American Type Culture Collection). 5-Fluorouracil was used as a control. It is worth noting that freshly prepared nanoparticle-based compounds were used in each of the conducted experiments. The protocol of the MTT assay was illustrated in detail in the Supplementary File. S3 1.1. Biological activity 1.1.1. In vitro cytotoxicity assay The cytotoxic activity of all synthesized compounds, both normal and nano-sized forms, was evaluated against three cancer cell lines, breast cancer (MCF-7), hepatocellular carcinoma (HepG-2), and non-small cell lung cancer (A549), while the normal Vero cell line was performed for the promising compounds 4, 6 and their nano-sized 4NPs, 6NPs, using the MTT assay according to the literature. […] The cytotoxic activities of the examined compounds were quantified by inoculating a 96-well tissue culture plate with 1 X 10 5 cells / mL (100 uL/well) and incubating it at 37°C for 24 hours to develop a complete monolayer sheet. […]
# [2] = tested on: A549; test: cells; design: MTT cytotoxicity assay, formazan absorbance, viability IC50; conditions: Homo sapiens
# Procedure: (§1) The cytotoxic activity of all synthesised compounds, both normal and nano-sized forms, was evaluated against three cancer cell lines, breast cancer (MCF-7), hepatocellular carcinoma (HepG-2), and non-small cell lung cancer (A549), while the normal Vero cell line was performed for the promising compounds 4, 6 and their nano-sized 4NPs, 6NPs, using the MTT assay according to the literature. The cell lines were obtained from ATCC (American Type Culture Collection). 5-Fluorouracil was used as a control. It is worth noting that freshly prepared nanoparticle-based compounds were used in each of the conducted experiments. The protocol of the MTT assay was illustrated in detail in the Supplementary File. S3 1.1. Biological activity 1.1.1. In vitro cytotoxicity assay The cytotoxic activity of all synthesized compounds, both normal and nano-sized forms, was evaluated against three cancer cell lines, breast cancer (MCF-7), hepatocellular carcinoma (HepG-2), and non-small cell lung cancer (A549), while the normal Vero cell line was performed for the promising compounds 4, 6 and their nano-sized 4NPs, 6NPs, using the MTT assay according to the literature. The cell lines were obtained from ATCC (American Type Culture Collection). 5-Fluorouracil was used as a reference drug. The cytotoxic activities of the examined compounds were quantified by inoculating a 96-well tissue culture plate with 1 X 10 5 cells / mL (100 uL/well) and incubating it at 37°C for 24 hours to develop a complete monolayer sheet. After forming a confluent sheet of cells, the growth medium was decanted from 96-well microtiter plates, and the cell monolayer was washed twice with wash media. Two-fold dilutions of tested samples were made in RPMI medium with 2% serum (maintenance medium), and 0.1 mL of each dilution was tested in different wells, with three wells serving as controls and receiving only maintenance medium. Following that, the plate was incubated at 37°C and examined. Cells were investigated for any physical signs of toxicity, such as partial or complete monolayer loss, rounding, shrinkage, or cell granulation. MTT solution was prepared (5mg/ml in PBS) (BIO BASIC CANADA INC), and 20 uL MTT solution was added to each well. After 5 minutes on a shaking table at 150 rpm to thoroughly mix the MTT into the media, it was incubated (37 ° C, 5% CO2) for 4 hours to allow the MTT to be metabolized. Formazan (MTT metabolic product) was resuspended in 200 uL DMSO and shaken at 150 rpm for 5 minutes to t
# [3] = tested on: HepG-2; test: cells; design: MTT cytotoxicity assay, formazan absorbance, viability IC50; conditions: Homo sapiens, HepG2
# Procedure: as §1
# [4] = tested on: MCF-7; test: cells; design: MTT cytotoxicity assay, formazan absorbance, viability IC50; conditions: Homo sapiens, MCF7
# Procedure: as §1
# [5] = biological target: T1, tubulin (tubulin polymerase, colchicine binding site); test: colchicine-tubulin competition-binding assay; conditions: read-out: Tubulin polymerase (CBS) (IC50 μM ± SD)
# T1 construct: with alpha/beta-tubulin heterodimer
# [6] = biological target: T2, CDK1 (Homo sapiens, UniProt P06493); test: in vitro CDK1/cyclin B1 kinase inhibition assay (kit); format: biochemical; conditions: read-out: CDK1 (IC50 μM ± SD)
# T2 construct: with cyclin B1
# T2 sequence (P06493 whole entry): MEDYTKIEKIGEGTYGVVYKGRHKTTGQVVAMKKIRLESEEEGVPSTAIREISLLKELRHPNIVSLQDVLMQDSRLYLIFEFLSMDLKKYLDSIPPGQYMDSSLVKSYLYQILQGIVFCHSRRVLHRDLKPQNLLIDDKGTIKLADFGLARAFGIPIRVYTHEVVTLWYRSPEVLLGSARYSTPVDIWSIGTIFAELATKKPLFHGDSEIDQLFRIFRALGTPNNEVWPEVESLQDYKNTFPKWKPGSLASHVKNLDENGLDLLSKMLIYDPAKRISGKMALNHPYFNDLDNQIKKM
# T2 sequence (P14635 whole entry partner): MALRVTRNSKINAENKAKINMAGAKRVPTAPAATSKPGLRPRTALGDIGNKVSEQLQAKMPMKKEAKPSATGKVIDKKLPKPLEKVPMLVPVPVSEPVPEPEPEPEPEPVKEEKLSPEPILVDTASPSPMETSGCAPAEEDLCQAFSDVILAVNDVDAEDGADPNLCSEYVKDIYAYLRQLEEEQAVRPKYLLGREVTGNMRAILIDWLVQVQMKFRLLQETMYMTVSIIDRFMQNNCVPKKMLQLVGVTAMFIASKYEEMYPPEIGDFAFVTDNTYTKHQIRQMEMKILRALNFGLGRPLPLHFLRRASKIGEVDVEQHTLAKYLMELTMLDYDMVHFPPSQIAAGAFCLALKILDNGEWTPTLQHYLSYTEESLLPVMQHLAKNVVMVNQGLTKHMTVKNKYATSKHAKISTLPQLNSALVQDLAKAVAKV
Compound,IC50 [3],other results
"O=c1[nH]cc(F)c(=O)[nH]1 [5-FU, 5-fluorouracil]",1.36 µM,CC50 [1]: 3.04 µM; IC50 [2]: 0.76 µM; IC50 [4]: 1.82 µM
"CN(C)c1ccc(/C=N/c2c(N)n(C)c(=O)[nH]c2=O)cc1 [compound 4, (E)-6-amino-5-((4-(dimethylamino)benzylidene)amino)-1-methylpyrimidine-2,4(1H,3H)-dione]",1.07 ± 0.03 µM,IC50 [5]: 1.93 ± 0.119 µM; IC50 [6]: 2.18 ± 0.06 µM
"Cn1c(N)c(/N=C/c2ccc(O)cc2)c(=O)[nH]c1=O [compound 5, (E)-6-amino-5-((4-hydroxybenzylidene)amino)-1-methylpyrimidine-2,4(1H,3H)-dione]",4.07 ± 0.08 µM,–
"CCn1c(N)c(/N=C/c2ccc(O)cc2)c(=O)[nH]c1=O [compound 6, (E)-6-amino-1-ethyl-5-((4-hydroxybenzylidene)amino)pyrimidine-2,4(1H,3H)-dione]",1.97 ± 0.05 µM,–
"CCn1c(N)c(/N=C/c2ccc([N+](=O)[O-])cc2)c(=O)[nH]c1=O [compound 7, (E)-6-amino-1-ethyl-5-((4-nitrobenzylidene)amino)pyrimidine-2,4(1H,3H)-dione]",3.38 ± 0.11 µM,–
"CCn1c(N)c(/N=C/c2ccccc2[N+](=O)[O-])c(=O)[nH]c1=O [compound 8, (E)-6-amino-1-ethyl-5-((2-nitrobenzylidene)amino)pyrimidine-2,4(1H,3H)-dione]",2.1 ± 0.09 µM,–
"CCn1c(N)c(/N=C/c2ccc(Br)cc2)c(=O)[nH]c1=O [compound 9, (E)-6-amino-5-((4-bromobenzylidene)amino)-1-ethylpyrimidine-2,4(1H,3H)-dione]",3.47 ± 0.09 µM,–

# From publication PMC10324454, “Novel pyrimidine Schiff bases and their selenium-containing nanoparticles as dual inhibitors of CDK1 and tubulin polymerase: design, synthesis, anti-proliferative evaluation, and molecular modelling” (Journal of Enzyme Inhibition and Medicinal Chemistry, 2023)
